Experimental data: patent publication US12129255B2, “Pyrido [2,3-d]pyrimidine derivatives as inhibitors of human immunodeficiency virus replication” (VIIV HEALTHCARE UK (No. 5) LIMITED, priority 2019, dated 2024)

Tests used:
[1] = Metabolism in liver microsomes (monkey); format: in vitro ADME
Experimental: (§1) Liver microsomes from human, rat dog and monkey were thawed and diluted to a final concentration of 1 mg/mL in 100 mM potassium phosphate buffer (pH 7.4). Test compounds and controls were prepared at 100× final concentration of 1 μM in 1:1 acetonitrile:water (v/v) and aliquoted into microsomal mixture. The mixture was preincubated at 37° C. in a shaking water bath for 10 minutes. The incubations were performed in duplicate. Three controls were included in the incubations; warfarin, phenacetin, and verapamil. After the preincubation, the reaction was initiated with NADPH at a final concentration of 1 mM. At 0, 5, 15, 30, 45 and 60 minutes, 25 μL of sample was removed and quenched with 300 μL of acetonitrile containing internal standard (Telmisartan). The samples were vortexed for 5 minutes at 1200 rpm and then centrifuged at 4000 rpm for 10 min. A 100 μL aliquot of supernatant was diluted three-fold with water and injected on an Exion LC 4500 Triple Quad LC-MS/MS system. Results were reported as a percentage of parent remaining and was calculated from peak area ratios of test compound remaining after at each time point and compared to time zero incubation.

[2] = Cytotoxicity in uninfected MT2 cells, XTT colorimetric assay; format: cell-based; details: human, day 4, XTT
Experimental: Compound cytotoxicity and the corresponding CC50 values were determined using the same protocol as described in the antiviral assay except that uninfected cells were used. Cytotoxicity was assessed on day 4 in uninfected MT2 cells by using an XTT (2,3-bis[2-Methoxy-4-nitro-5-sulfophenyl]-2H-tetrazolium-5-carboxyanilide inner salt)-based colorimetric assay (Sigma-Aldrich, St Louis, Mo).

[3] = IV pharmacokinetics in monkey; format: in vivo, Cynomolgus monkeys
Experimental: (§2) PK was investigated in male CD1 mice, Wistar Han Rats, Cynomolgus monkeys, and Beagle Dogs. Two groups of animals (N=3 per group) received test compound either as an intravenous (IV) dose (1 mg/kg) or by oral gavage (5 mg/kg solution and suspension). Drug was formulated in 90% PEG 400, 10% ethanol for IV administration and in 90% PEG400, 5% ethanol for PO administration. Blood samples were collected at 0.167, 0.25, 0.5, 0.75, 1, 2, 3, 5, 7, 24, 48, 72 and 96 h post dose for IV; 0.25, 0.5, 0.75, 1, 2, 3, 5, 7, 24, 48, 72 and 96 h post dose for oral. Blood samples were collected into K3EDTA tubes and centrifuged at 1500 to 2000×g to obtain plasma. Plasma samples were stored at −20° C. until analysis by LC-MS/MS. All in vivo samples were injected on an Exion LC 4500 Triple Quad™ LC-MS/MS system where the column was maintained at 60° C. and the flow rate was 0.6 mL/min. All LC-MS/MS analysis parameters are captured electronically in the raw data files. Rat IV, Dog IV, Monkey IV, and Monkey PO PK samples were analyzed by General Analysis Method A. Mouse IV, Mouse PO, and Dog PO PK samples were analyzed by General Analysis Method B. Rat PO samples were analyzed by General Analysis Method C.
(§3) The PK parameters were obtained by non-compartmental analysis of plasma concentration vs time data (Phoenix WinNonlin v8.1). The peak concentration (Cmax) and time for Cmax (Tmax) were recorded directly from experimental observations. The area under the curve from time zero to the last sampling time [AUC0-T] and the area under the curve from time zero to infinity [AUCINF] were calculated using the linear-log trapezoidal rule. The total plasma clearance (CLTp), steady-state volume of distribution (VSS), apparent elimination half-life (T-HALF), and mean residence time (MRT) were estimated after IV administration. Estimations of AUC and T-HALF were made using a minimum of three timepoints with quantifiable concentrations. The absolute oral bioavailability (F) was estimated as the ratio of dose-normalized AUC values following oral and IV doses.

[4] = Allometric scaling of pre-clinical PK parameters to predict dose in human
Experimental: Human dose predictions were performed using Phoenix WinNonlin (v 8.0) software and Microsoft Excel using the ModelRisk add-in for population modeling. Human estimates for each compound's CLTp were obtained based on average allometric scaling of mouse, rat, monkey and dog IV data (body weight scaling factor of 0.75) and an average (body weight scaling factor of 1.0) from all species for VSS. Human IV parameters (Vc, Ka, K12, K21, Kel) were determined using Mean Residence Time (MRT) scaling from preclinical species (mouse, rat, dog and cyno) using the human VSS and CLTp estimates. Absorption (Ka) was determined by deconvolution (PO) or from the half-life (SC) in preclinical species (Ka=LN(2)/t1/2). The predicted human dose for PO and SC is calculated with consideration of human variability and is calculated to cover 95% of the human population.

[5] = IV pharmacokinetics in rat; format: in vivo, Wistar Han Rats; details: Wistar Han, plasma, IV 1 mg/kg
Experimental: as §2, §3

[6] = Metabolism in liver microsomes (rat); format: in vitro ADME; details: pH 7.4, 1 μM compound, 1 mg/mL microsomes, NADPH, read-out: Rat liver microsome T1/2
Experimental: as §1

[7] = cynomolgus monkey, plasma, Monkey, IV 1 mg/kg

Cn1nc(NS(C)(=O)=O)c2c(Cl)ccc(-n3c([C@H](Cc4cc(F)cc(F)c4)NC(=O)Cn4nc(C(F)F)c5c4C(F)(F)[C@@H]4C[C@H]54)nc4nc(OCCC(F)(F)F)ccc4c3=O)c21 (atropisomer, axis not shown; (P)) [Example 1, N—((S)-1-((3P)-3-(4-chloro-1-methyl-3-(methylsulfonamido)-1H-indazol-7-yl)-4-oxo-7-(3,3,3-trifluoropropoxy)-3,4-dihydropyrido[2,3-d]pyrimidin-2-yl)-2-(3,5-difluorophenyl)ethyl)-2-((3bS,4aR)-3-(difluoromethyl)-5,5-difluoro-3b,4,4a,5-tetrahydro-1H-cyclopropa[3,4]cyclopenta[1,2-c]pyrazol-1-yl)acetamide]
stability in monkey liver microsomes relative to Example 60.2 ([1]; Example 1 versus Example 60.2): at least two times more stable
half-life at 1 μM ([1]; monkey, liver microsomes, pH 7.4, 1 μM compound, 1 mg/mL microsomes, NADPH, read-out: Monkey liver microsome T1/2): > 2 h
CC50 at 4 days [2]: > 0.5 µM
clearance [3, 7]: 8.5 mL/min/kg
half-life [3, 7]: 3 h
Vd ([3]; cynomolgus monkey, plasma, Monkey, IV 1 mg/kg, read-out: Vss): 1.18 L/kg
clearance improved relative to Example 60.2 ([3]; monkey, IV): 2.6 fold
half-life in circulation higher than Example 60.2 ([3]; monkey, IV): two-fold
predicted human QD PO dose ([4]; once-daily oral, allometric scaling, to cover 95% of the human population): less than 10 mg
predicted Q1M SC dose in human lower than for Example 60.2 ([4]; once-monthly subcutaneous, from SC rat PK and predicted human clearance): 15 fold
predicted once-daily oral dose in human lower than for Example 60.2 ([4]; to maintain efficacious plasma concentration): 7 fold
clearance [5]: 2.64 mL/min/kg
half-life [5]: 17.4 h
Vd ([5]; read-out: Vss): 3.34 L/kg
half-life at 1 μM [6]: > 2 h
